Assay results taken from patent US20210063414A1, “METHODS FOR PREVENTING AND/OR TREATING BONE LOSS CONDITIONS BY MODULATING IRISIN” (Dana-Farber Cancer Institute, Inc., priority 2018, published 2021).

System: sclerostin mRNA in MLO-Y4 cells
Assay: Sclerostin mRNA in MLO-Y4 cells, qRT-PCR
Assay type: cell-based, mouse
Settings: MLO-Y4, inhibitor pre-treatment 10 minutes, irisin 16 hours
Experimental: Cells were stained with Hoechst 33342 and Eth-D1, and analyzed to determine the percentage of cell death. *: p<0.05, ***: p<0.001 vs 0.3 mM H2O2 treated condition. […] MLO-Y4 cells were seeded and incubated until 60% cell density. The cells were incubated with Freestyle293 medium for 4 hours and were treated with indicated concentrations of irisin for 16 hours. Sclerostin mRNA level was analyzed by qRT-PCR. Cyclophilin was used as a control house-keeping gene.
MLO-Y4 cells were incubated in serum free medium for 3 hours followed by treatment of indicated concentrations of irisin for indicated time (FIG. 6A), or followed by treatment of 0 or 10 nM irisin in the presence of indicated integrin inhibitors or their control peptide for 16 hours (FIG. 6B). Sclerostin mRNA level was analyzed by qPCR.
Certain materials and methods were used to generate the results described herein. For example, the data shown in FIG. 1A resulted from MLO-Y4 (an osteocyte-like cell line) cells treated with the indicated concentration of irisin and hydrogen peroxide for 4 hours. Cells were stained with Hoechst 33342 (ThermoFisher Scientific, catalog number H3570) and Eth-D1 (ThermoFisher Scientific, catalog number E1169) and analyzed to determine the percentage of cell death using ImageJ. The data shown in FIG. 2D resulted from MLO-Y4 incubated in serum free medium (FreeStyle™ 293 expression medium, ThermoFisher Scientific, catalog number 12338018) for 4 hours followed by treatment of indicated concentrations of irisin for 10 minutes. Cells were lysed to detect the indicated protein level using immunoblot analysis (Cell Signaling Technology, catalog numbers 3283S, 3285S, 8467S, 3553S, 9198S, and 9104S; Abcam, catalog number ab49900-100ul). The data shown in FIG. 3 resulted from 3T3-F442A cells incubated in serum free medium for 4 hours followed by treatment of indicated concentrations of irisin for 10 minutes. Cells were lysed by RIPA buffer to detect the indicated protein level using immunoblot analysis. The data shown in FIG. 4 were generated from 100 nM flag-tagged irisin (Enzo life sciences, catalog number ADI-908-307-3010) incubated with 5 nM of the indicated 6 his-tag integrins (R & D Systems Inc., catalog numbers 7064-AB-025, 5668-A4-050, 5438-A9-050, 6357-AB-050, and 6579-AV-025) in the presence of RGDS peptide (R & D Systems Inc., catalog number 3498/10) or its control peptide (Enzo Life Sciences, catalog Number BML-P701-0005) followed by immunoprecipitation using 6 his-tag beads (ThermoFisher Scientific, catalog number R901-01). Co-precipitated irisin was analyzed by immunoblot analysis against flag tag (Sigma Aldrich, catalog number A8592). The data shown in FIGS. 5A and 5B were generated from MLO-Y4 cells treated and analyzed as in the experiments used to generate the data shown in FIG. 2D, except that pre-treatment of 100 nM RGDS (FIG. 5A) or echistatin (R & D Systems Inc., catalog number 3202/100U) (FIG. 5B) for 10 minutes was performed before irisin treatment. The data shown in FIGS. 6A and 6B were generated from MLO-Y4 cells incubated in serum free medium for 3 hours followed by treatment of indicated time of 10 nM irisin for 16 hours. RNAs were extracted from the cells and the sclerostin mRNA level was analyzed by qPCR (FIG. 6A) or treated and analyzed as in (FIG. 6A), except that pre-treatment of 10 μM RGDS, RGDyK (Selleck, catalog number S7844), or echistatin was performed for 10 minutes before irisin treatment. […] Sclerostin mRNA level was analyzed by qPCR (FIG. 7A). […]

| Compound | effect of integrin inhibitor on irisin-induced sclerostin mRNA | effect of integrin inhibitor on irisin-induced sclerostin mRNA (listed as RGDyK circular peptide) | effect of integrin inhibitor on irisin-induced sclerostin mRNA (listed as RGD peptide) |
| --- | --- | --- | --- |
| N=C(N)NCCC[C@@H]1NC(=O)[C@H](CCCCN)NC(=O)[C@@H](Cc2ccc(O)cc2)NC(=O)[C@H](CC(=O)O)NC(=O)CNC1=O [cyclo RGDyK] | prevented sclerostin induction | sensitive |  |
| RGDS peptide: classical integrin competitive inhibitory peptide, commercially available form of the RGD peptide | sensitive |  | prevented sclerostin induction |
